This note sets out measurements from ChEMBL document CHEMBL5625199, “Discovery of triazole-bridged aryl adamantane analogs as an intriguing class of multifunctional agents for treatment of Alzheimer's disease” (Eur J Med Chem, 2023).

By IC50 is commonly meant the midpoint of a concentration-inhibition curve. For orientation: Ki means a dissociation constant, usually derived from enzyme kinetics or from competition with a known ligand. High values mean lower affinity, low ones higher affinity. The term Papp denotes a coefficient for how fast a substance crosses the barrier. Low readings indicate poor permeation, high ones ready permeation.

Activity calls are given as the source filed them. No cut-off for these calls is given here.

Data set [1] is described as follows: Antagonist activity at GluN1-1b/GluN2D (unknown origin) expressed in xenopus laevis oocytes assessed as inhibition of glycine/glutamate-induced channel current incubated for 20s measured at holding potential of -70 mV by two-electrode voltage clamp technique. It is filed as cell-based. Conditions: Homo sapiens, Oocyte. Background: In two-electrode clamp one electrode senses voltage and the other passes current.

Data set [2] is described as follows: Antagonist activity at GluN1-1b/GluN2A (unknown origin) expressed in xenopus laevis oocytes assessed as inhibition of glycine/glutamate-induced channel current incubated for 20s measured at holding potential of -70 mV by two-electrode voltage clamp technique. It is filed as cell-based. To be noted: Homo sapiens, Oocyte.
Data set [3] deals with Amyloid-beta precursor protein (Homo sapiens) (UniProt P05067). Kind of data set: Inhibition of AChE-induced Amyloid beta (1 to 42 residues) (unknown origin) aggregation at Abeta(1 to 42) to compound concentration ratio of 10:5 to 10:20 uM incubated for 48 hrs by ThT fluorescence method.
A further data set has as its system SH-SY5Y. Description: Neuroprotective activity against human SH-SY5Y cells assessed as reduction of Abeta(1 to 42)-induced cytotoxicity upto 10 uM pretreated with Abeta42 for 24 hrs followed by incubation with compound for 72 hrs by MTT assay. It is filed as functional, cell-based. (In general: Formazan colour is commonly taken as a measure of viable cells.)
In data set [4] the target is T1, Acetylcholinesterase (Electrophorus electricus, UniProt O42275). Description: Non-competitive inhibition of electric eel AChE by Dixon plot analysis.
The target in data set [5] is T2, Acetylcholinesterase (Homo sapiens, UniProt P22303). Description: Inhibition of human AChE.
For data set [6], the target named is T3, Acetylcholinesterase (Rattus norvegicus) (UniProt P37136).
T3 sequence (whole entry): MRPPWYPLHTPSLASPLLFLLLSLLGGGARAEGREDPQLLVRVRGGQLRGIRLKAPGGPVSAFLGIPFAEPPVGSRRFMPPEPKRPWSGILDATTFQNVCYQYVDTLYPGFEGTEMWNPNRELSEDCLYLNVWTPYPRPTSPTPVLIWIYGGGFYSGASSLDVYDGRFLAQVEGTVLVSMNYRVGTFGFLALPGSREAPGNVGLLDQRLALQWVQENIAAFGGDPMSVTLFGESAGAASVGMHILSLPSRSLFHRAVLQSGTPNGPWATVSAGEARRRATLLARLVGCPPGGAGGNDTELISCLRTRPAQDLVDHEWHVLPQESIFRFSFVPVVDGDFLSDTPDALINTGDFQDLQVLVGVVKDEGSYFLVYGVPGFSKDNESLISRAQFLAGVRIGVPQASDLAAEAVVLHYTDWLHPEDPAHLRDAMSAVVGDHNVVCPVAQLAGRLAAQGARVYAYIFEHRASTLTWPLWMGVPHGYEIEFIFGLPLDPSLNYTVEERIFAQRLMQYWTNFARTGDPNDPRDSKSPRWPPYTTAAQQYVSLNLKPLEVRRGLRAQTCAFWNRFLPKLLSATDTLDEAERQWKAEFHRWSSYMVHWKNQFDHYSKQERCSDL
Kind of data set: Ex vivo inhibition of AChE activity in brain of scopalamine-induced amnesia Wistar rat model at 10 mg/kg, po administered for 7 days and on day 7 administered with scopolamine at 30 mins before drug administration. It is filed as functional, organism-based. Conditions: time 7.0 day.

The nature of data set [7]: Antagonist activity at GluN1-1a/GluN2B (unknown origin) expressed in xenopus laevis oocytes assessed as inhibition of glycine/glutamate-induced channel current incubated for 20s measured at holding potential of -70 mV by two-electrode voltage clamp technique. To be noted: Oocyte. Type of data set: cell-based, Homo sapiens.
Data set [8] has as its system HEK-293T. Description: Cytotoxicity against HEK293T cells assessed as reduction in cell viability at 100 uM measured after 44 hrs by WST-1 assay. Type of data set: toxicity, cell-based. To be noted: human.
For data set [9], the system named is Rattus norvegicus. Description: Antialzheimer activity against scopalamine-induced amnesia Wistar rat model assessed as inhibition of cognition impairment by measuring increase in spontaneous alterations at 10 mg/kg, po administered for 7 days and on day 7 administered with scopolamine at 30 mins before drug administration by Y-maze test. Type of data set: functional, organism-based. Conditions: time 7.0 day.

In the next data set the target is Cholinesterase (Equus caballus, UniProt P81908). Description: Inhibition of equine serum BuChE using butyrylthiocholine iodide as substrate preincubated with enzyme for 10 mins followed by substrate addition and measured every 1 min for 20 mins by spectrophotometric analysis.
Data set [10] deals with Rattus norvegicus. Description: Antialzheimer activity against Abeta(1 to 42)-induced coginitive deficit Wistar rat model assessed as increase in time spent in the platform zone at 10 mg/kg, po administered for 7 days by Morris water maze test. Conditions: time 7.0 day. Type of data set: functional, organism-based.
The nature of data set [11]: Antagonist activity at GluN1-1b/GluN2B (unknown origin) expressed in xenopus laevis oocytes assessed as inhibition of glycine/glutamate-induced channel current incubated for 20s measured at holding potential of -70 mV by two-electrode voltage clamp technique. Type of data set: cell-based. Conditions: Homo sapiens, Oocyte.
The test system of data set [12] is Rattus norvegicus. Description: Antialzheimer activity against Abeta(1 to 42)-induced coginitive deficit Wistar rat model assessed as increase in total number of platform crossings at 10 mg/kg, po administered for 7 days by Morris water maze test. Type of data set: functional, organism-based. To be noted: time 7.0 day.
Data set [13] is described as follows: Antagonist activity at GluN1-1b/GluN2C (unknown origin) expressed in xenopus laevis oocytes assessed as inhibition of glycine/glutamate-induced channel current incubated for 20s measured at holding potential of -70 mV by two-electrode voltage clamp technique. It is filed as cell-based. To be noted: Homo sapiens, Oocyte.
Data set [14] is described as follows: Antagonist activity at GluN1-1a/GluN2D (unknown origin) expressed in xenopus laevis oocytes assessed as inhibition of glycine/glutamate-induced channel current incubated for 20s measured at holding potential of -70 mV by two-electrode voltage clamp technique. Type of data set: cell-based. To be noted: Homo sapiens, Oocyte.
The nature of a further data set: in vitro. Conditions: PAMPA. On the technique in general: In PAMPA a lipid-coated filter parts donor from acceptor wells.
Data set [15] is described as follows: Antagonist activity at GluN1-1a/GluN2C (unknown origin) expressed in xenopus laevis oocytes assessed as inhibition of glycine/glutamate-induced channel current incubated for 20s measured at holding potential of -70 mV by two-electrode voltage clamp technique. Conditions: Homo sapiens, Oocyte. Type of data set: cell-based.
For data set [16], the target named is T3, Acetylcholinesterase (Rattus norvegicus). Description: Ex vivo inhibition of AChE activity in brain of scopalamine-induced amnesia Wistar rat model at 2.5 to 10 mg/kg, po administered for 7 days and on day 7 administered with scopolamine at 30 mins before drug administration. Conditions: dose 2.5-10 mg/kg, time 7.0 day. Type of data set: functional, organism-based.

Data set [17] deals with T1, Acetylcholinesterase. Kind of data set: Inhibition of electric eel AChE using acetylthiocholine iodide as substrate preincubated with enzyme for 10 mins followed by substrate addition and measured every 1 min for 20 mins by spectrophotometric analysis.
Data set [18] concerns the target Amyloid-beta precursor protein (Homo sapiens) (UniProt P05067). Kind of data set: Inhibition of self-induced Amyloid beta (1 to 42 residues) (unknown origin) aggregation at Abeta(1 to 42) to compound concentration ratio of 10:5 to 10:20 uM incubated for 48 hrs by ThT fluorescence method.
The subject of data set [19] is Rattus norvegicus. Kind of data set: Antialzheimer activity against scopalamine-induced amnesia Wistar rat model assessed as inhibition of cognition impairment by measuring increase in spontaneous alterations at 2.5 to 10 mg/kg, po administered for 7 days and on day 7 administered with scopolamine at 30 mins before drug administration by Y-maze test. Conditions: dose 2.5-10 mg/kg, time 7.0 day. It is filed as functional, organism-based.

Data set [20] can be described thus: Selectivity index, ratio of IC50 for equine serum BuChE to IC50 for electric eel AChE.
Data set [21] in a line: Antagonist activity at GluN1-1a/GluN2A (unknown origin) expressed in xenopus laevis oocytes assessed as inhibition of glycine/glutamate-induced channel current incubated for 20s measured at holding potential of -70 mV by two-electrode voltage clamp technique. Type of data set: cell-based. Conditions: Homo sapiens, Oocyte.
The test system of data set [22] is HEK-293T. Description: Cytotoxicity against HEK293T cells assessed as reduction in cell viability at 0.3 to 30 uM measured after 44 hrs by WST-1 assay. It is filed as toxicity, cell-based. Conditions: human, dose 0.3-30 µM.
Data set [23] has as its target T2, Acetylcholinesterase. Kind of data set: Inhibition of AChE (unknown origin).
Data set [24] relates to HEK-293T. Description: Cytotoxicity against HEK293T cells assessed as reduction in cell viability at 0.3 to 100 uM measured after 44 hrs by WST-1 assay. It is filed as toxicity, cell-based. Conditions: human, dose 0.3-100 µM.
Data set [25] concerns the target Glutamate receptor ionotropic, NMDA 2A (Homo sapiens, UniProt Q05586+Q12879). Kind of data set: Antagonist activity at GluN2A NMDA receptor (unknown origin).

T1 sequence (O42275 whole entry): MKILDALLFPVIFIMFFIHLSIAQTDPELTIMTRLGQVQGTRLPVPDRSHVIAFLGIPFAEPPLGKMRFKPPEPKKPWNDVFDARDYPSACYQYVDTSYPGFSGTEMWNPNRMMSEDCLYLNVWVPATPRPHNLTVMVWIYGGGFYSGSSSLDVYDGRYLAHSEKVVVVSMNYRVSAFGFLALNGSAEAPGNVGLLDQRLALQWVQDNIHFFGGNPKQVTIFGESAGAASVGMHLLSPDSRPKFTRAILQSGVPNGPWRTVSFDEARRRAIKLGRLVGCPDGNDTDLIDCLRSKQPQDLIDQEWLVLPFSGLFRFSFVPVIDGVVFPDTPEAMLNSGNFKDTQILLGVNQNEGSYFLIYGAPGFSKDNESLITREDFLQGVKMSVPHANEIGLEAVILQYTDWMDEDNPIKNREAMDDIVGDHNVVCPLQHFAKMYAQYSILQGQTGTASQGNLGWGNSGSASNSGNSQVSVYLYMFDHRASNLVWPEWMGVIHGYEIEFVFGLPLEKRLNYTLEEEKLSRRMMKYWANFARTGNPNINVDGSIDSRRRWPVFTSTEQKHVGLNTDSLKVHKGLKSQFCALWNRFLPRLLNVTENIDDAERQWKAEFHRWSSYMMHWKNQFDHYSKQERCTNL
T2 sequence (P22303 whole entry): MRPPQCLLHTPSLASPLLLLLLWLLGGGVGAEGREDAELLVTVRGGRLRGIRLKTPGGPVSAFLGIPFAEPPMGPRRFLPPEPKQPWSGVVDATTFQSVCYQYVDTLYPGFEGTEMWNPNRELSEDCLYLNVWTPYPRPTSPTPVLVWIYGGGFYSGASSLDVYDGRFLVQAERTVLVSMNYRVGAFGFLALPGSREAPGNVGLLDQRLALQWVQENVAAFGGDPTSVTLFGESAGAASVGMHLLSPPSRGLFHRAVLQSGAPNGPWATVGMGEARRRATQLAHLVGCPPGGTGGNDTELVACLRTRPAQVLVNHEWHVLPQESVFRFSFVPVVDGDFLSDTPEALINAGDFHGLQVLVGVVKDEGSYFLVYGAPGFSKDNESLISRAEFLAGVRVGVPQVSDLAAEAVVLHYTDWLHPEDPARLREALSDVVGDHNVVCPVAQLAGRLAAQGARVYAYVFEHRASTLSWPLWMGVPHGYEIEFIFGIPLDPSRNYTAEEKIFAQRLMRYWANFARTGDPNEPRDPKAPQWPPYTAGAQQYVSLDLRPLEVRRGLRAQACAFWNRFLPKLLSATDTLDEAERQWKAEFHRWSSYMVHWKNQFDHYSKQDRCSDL
Chain of Amyloid-beta precursor protein (Homo sapiens) (P05067 whole entry, the tested form may be a part): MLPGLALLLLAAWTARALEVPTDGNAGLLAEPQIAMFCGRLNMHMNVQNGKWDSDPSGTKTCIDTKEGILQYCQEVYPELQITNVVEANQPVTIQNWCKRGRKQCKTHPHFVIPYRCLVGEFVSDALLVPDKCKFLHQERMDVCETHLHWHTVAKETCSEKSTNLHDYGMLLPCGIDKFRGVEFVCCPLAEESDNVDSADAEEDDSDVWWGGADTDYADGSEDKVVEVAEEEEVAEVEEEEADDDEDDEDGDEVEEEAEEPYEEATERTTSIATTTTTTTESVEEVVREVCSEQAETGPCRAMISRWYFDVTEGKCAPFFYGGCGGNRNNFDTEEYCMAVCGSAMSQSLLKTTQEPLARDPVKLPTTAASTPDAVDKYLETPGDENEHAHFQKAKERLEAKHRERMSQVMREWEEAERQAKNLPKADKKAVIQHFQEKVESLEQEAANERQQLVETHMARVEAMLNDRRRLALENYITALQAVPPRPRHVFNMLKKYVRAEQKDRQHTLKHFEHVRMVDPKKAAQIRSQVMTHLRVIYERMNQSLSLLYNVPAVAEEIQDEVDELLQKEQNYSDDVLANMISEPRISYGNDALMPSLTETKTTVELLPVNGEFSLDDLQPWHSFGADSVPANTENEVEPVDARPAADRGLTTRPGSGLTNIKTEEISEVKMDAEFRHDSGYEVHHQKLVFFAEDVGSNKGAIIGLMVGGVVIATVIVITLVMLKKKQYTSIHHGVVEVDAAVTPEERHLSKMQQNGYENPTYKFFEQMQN
Chain of Glutamate receptor ionotropic, NMDA 2A (Q12879 whole entry, one chain of several): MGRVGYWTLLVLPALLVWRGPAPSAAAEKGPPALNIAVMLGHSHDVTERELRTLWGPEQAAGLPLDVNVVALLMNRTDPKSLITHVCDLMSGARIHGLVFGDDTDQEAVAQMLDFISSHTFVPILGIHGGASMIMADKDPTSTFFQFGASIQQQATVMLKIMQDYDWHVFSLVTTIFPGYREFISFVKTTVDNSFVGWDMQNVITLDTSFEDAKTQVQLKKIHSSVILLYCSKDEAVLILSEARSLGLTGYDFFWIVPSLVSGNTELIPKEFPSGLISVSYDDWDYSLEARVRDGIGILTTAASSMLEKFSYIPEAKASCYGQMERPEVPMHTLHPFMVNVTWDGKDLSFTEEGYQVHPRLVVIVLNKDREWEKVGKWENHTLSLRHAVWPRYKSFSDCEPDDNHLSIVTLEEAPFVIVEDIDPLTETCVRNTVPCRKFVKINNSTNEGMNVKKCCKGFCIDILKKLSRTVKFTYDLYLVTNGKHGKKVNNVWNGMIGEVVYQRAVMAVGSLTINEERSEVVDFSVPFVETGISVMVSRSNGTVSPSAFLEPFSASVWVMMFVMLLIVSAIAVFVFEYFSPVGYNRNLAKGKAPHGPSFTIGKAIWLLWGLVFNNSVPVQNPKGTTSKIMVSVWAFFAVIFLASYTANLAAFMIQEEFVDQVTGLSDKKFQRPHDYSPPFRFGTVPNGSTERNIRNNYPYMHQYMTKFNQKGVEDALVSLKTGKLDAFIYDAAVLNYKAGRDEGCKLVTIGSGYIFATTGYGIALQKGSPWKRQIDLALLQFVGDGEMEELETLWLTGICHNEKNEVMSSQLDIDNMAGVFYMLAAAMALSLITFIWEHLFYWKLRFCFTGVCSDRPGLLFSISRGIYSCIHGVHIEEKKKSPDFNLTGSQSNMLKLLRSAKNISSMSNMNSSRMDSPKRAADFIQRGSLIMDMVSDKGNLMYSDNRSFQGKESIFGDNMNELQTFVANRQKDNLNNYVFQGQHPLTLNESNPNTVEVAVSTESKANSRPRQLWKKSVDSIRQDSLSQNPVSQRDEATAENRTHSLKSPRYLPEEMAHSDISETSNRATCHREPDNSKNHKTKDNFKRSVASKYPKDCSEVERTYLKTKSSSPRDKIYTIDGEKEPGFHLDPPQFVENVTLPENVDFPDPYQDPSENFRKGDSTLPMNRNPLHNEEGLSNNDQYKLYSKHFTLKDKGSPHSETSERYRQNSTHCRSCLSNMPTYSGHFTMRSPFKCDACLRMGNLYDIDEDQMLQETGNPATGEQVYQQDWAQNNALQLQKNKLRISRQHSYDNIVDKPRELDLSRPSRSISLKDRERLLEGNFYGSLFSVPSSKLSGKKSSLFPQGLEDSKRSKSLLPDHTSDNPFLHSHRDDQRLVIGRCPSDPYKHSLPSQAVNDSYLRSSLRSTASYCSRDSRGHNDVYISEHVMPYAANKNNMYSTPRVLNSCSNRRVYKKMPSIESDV
Chain of Cholinesterase (P81908 whole entry): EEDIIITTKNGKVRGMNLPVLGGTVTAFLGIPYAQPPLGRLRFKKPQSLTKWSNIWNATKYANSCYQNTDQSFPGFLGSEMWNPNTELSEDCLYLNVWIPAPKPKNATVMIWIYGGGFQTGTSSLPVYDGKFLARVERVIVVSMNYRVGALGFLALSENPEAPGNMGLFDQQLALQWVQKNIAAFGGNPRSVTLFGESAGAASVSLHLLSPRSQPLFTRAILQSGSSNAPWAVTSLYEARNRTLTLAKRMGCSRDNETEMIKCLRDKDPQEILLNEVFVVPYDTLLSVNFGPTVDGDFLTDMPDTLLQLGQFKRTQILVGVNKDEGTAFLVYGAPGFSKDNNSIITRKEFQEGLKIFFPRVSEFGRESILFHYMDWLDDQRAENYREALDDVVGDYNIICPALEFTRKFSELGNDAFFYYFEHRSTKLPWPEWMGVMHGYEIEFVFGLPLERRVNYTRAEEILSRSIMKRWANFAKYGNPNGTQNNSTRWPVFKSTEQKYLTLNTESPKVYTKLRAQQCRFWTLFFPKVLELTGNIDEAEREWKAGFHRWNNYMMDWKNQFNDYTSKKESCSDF
Description for in vitro: Permeability of the compound at 25 ug/ml incubated or 18 hrs by PAMPA-BBB assay

As for `Brc1ccc(Cn2cc(CNC34CC5CC(CC(C5)C3)C4)nn2)cc1`, the IC50 in data set [1] was found to be 99.5 µM; in data set [2], 36.5 µM; against Acetylcholinesterase [5], 0.092 µM; in [7] it was 3.88 µM; at Cholinesterase, 2.55 µM; in data set [11] it was 3 µM. Further, the IC50 in data set [13] was determined as 45.1 µM; in data set [14], 112 µM; in [15] it was 90.2 µM; on Acetylcholinesterase [17], 0.086 µM; in data set [21], 47.4 µM. The inhibition entry in [3], in [16] and in data set [18] was “Dose-Dependent Effect” throughout. The outcome in the data set on SH-SY5Y, with Rattus norvegicus [9], in the data set with Rattus norvegicus [10] and with Rattus norvegicus [12] was Active. On Acetylcholinesterase [4], this compound came in with a Ki of 0.026 µM. The inhibition result in [6] is “Active”. The results for the Activity result with HEK-293T [8], in the data set on Rattus norvegicus [19] and in the data set on HEK-293T [22] were “Toxic”, “Dose-Dependent Effect” and “Non-Toxic”, respectively. Also, the Papp at 18 h, 25 ug/ml in “in vitro” turned out to be 8.75 ×10⁻⁶ cm/s. In [20], the Ratio IC50 came out at 29.6.
In the case of `CC12CC3CC(C)(C1)CC(N)(C3)C2` [MEMANTINE], the IC50 in data set [1] stood at 0.592 µM; in [2], 3.39 µM; on Acetylcholinesterase [23], 0.78 µM; in [7] it was 0.778 µM; in data set [11], 1.27 µM; in data set [13] it was 0.318 µM. The IC50 in data set [14] is 0.367 µM; in [15], 0.222 µM; in [21], 3.47 µM. In addition, the Papp at 18 h, 25 ug/ml in “in vitro” was determined as 6.84 ×10⁻⁶ cm/s. Further, the Activity entry in the data set on HEK-293T [24] is given as “Toxic”.
`CC(C(O)c1ccc(O)cc1)N1CCC(Cc2ccccc2)CC1` (configuration not stated) [IFENPRODIL] came in with an IC50 in data set [25] of 146 µM.
